The source of these data is the METLIN SMRT retention time set (Domingo-Almenara et al. 2019).

This series is described as follows: gradient 5% acetonitrile 3 min, to 50% in 2 min, to 85% in 15 min, held 3 min, 100 µL/min. The note with it: column: Zorbax Extend-C18 2.1 x 50 mm; eluents: water / acetonitrile, 0.1% formic acid. Put shortly:
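Standards, all pure, were combined into mixtures of ~100 molecules and run at 100 μL/min on a Zorbax Extend-C18 column (2.1 × 50 mm, 1.8 μm) with water and acetonitrile, each containing 0.1% formic acid. A coupled quadrupole time-of-flight mass spectrometer operated in positive and negative ionization mode. Retention time values come from computationally picked adduct peaks, each inspected manually.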
For `CC(C)(C)c1ccc(C(=O)N2CCN=C2N2CCCC2)cc1`, the RP-LC retention time was 738 s.
With `FC(F)(F)c1cnc(N2CCN(c3ccccc3)CC2)c(Cl)c1`, the RP-LC retention time came to 1390 s.
Next, `Cc1cccc(NC(=O)c2cnn3c2CCCC3)c1`: 776 s.
The molecule `Cc1cccc2c(C(=O)N3CCCC3)cc(N(C)C)nc12` showed an RP-LC retention time of 605 s.
`CCc1nc(-c2cccc(-c3noc(COc4ccccc4)n3)c2)cs1` had an RP-LC retention time of 1300 s.
The value for `CCc1noc(NC(C)=O)c1-c1ccc(OC)c(S(=O)(=O)N2CCCCC2)c1` was 758 s; that for `Cc1cc(O)c(C(C)C)cc1NC(=O)Nc1cccc2ccccc12` was 1190 s.
With `CCCNC(=O)CC1CCN(C(=O)c2[nH]c(C)cc2C)CC1`, the RP-LC retention time worked out at 661 s.
The value for `COc1ccc(CCC(=O)NC(C)C(=O)N2CCN(c3ccccn3)CC2)cc1` (stereo unspecified) was 606 s; that for `COc1ccc(CN2C=C(C(=O)OCc3nc(-c4cccc(OC)c4)no3)C(C)=NS2(=O)=O)cc1` was 1130 s.
For the molecule `Cc1cc(N2CCN(S(=O)(=O)c3ccc(F)cc3)CC2)nc(NC2CCCCC2)n1`, the RP-LC retention time came out at 797 s.
Next, `Cc1ccccc1NC(=O)NCC(c1cccnc1)c1cn(C)c2ccccc12` (stereo unspecified): 680 s.
As to `COc1cccc(C2(C(N)=O)CC2)c1`, the RP-LC retention time was 688 s.
In the case of `CCCn1cc(-c2ccncc2)cc1C(=O)NC1CC1`, the RP-LC retention time came to 579 s.
In the case of `O=C(NCc1ccccc1Cl)C(=O)NCC(c1ccc2c(c1)OCO2)N1CCOCC1` (stereo unspecified), the RP-LC retention time worked out at 678 s.
Take `Cc1sc(-c2cc(C(F)(F)F)on2)cc1S(=O)(=O)Nc1cccc(Cl)c1C`: the RP-LC retention time was determined as 1240 s.
On to `C=CC(C)(C)c1cc(/C=C/C(=O)c2ccc(O)cc2)c(OC)cc1O`, for which the RP-LC retention time was determined as 903 s.
Regarding `Cc1ccc(CNC(=O)C2(C)CCCN(C(=O)Nc3ccc(Br)c(C)c3)C2)cc1` (stereo unspecified), the RP-LC retention time was found to be 1110 s.
On to `CCN1CCN(S(=O)(=O)c2cc(-c3nnc(C4CCCC4)o3)co2)CC1`, for which the RP-LC retention time is 637 s.
Next, `Cc1nn(CC(=O)NCC2CCCO2)c(=O)c2c(-n3cccc3)n(-c3cccc(F)c3)nc12` (stereo unspecified): 818 s; `Cc1cc(C)n(-c2cc(N3CCCC(C(=O)Nc4cccc(C(F)(F)F)c4)C3)ncn2)n1` (stereo unspecified): 1060 s; `Cc1noc(C2CN(C(=O)COc3ccc(Cl)cc3)CC23CCOCC3)n1` (stereo unspecified): 768 s.
Turning to `O=C(NCc1ccc(Cl)cc1)C1=C2CCCN2c2ccc(F)cc2S1(=O)=O`, the RP-LC retention time came to 941 s.
The molecule `Cc1ccnc(N2CCCC(C(=O)N3CCN(C)CC3)C2)n1` (stereo unspecified) had an RP-LC retention time of 538 s.
Regarding `COc1cc(OC)cc(-c2nnc(Cc3nc(-c4cccc(Cl)c4)no3)o2)c1`, the RP-LC retention time amounted to 1130 s.
As for `NS(=O)(=O)c1ccc(NC(=O)c2ccc(Br)cc2F)cc1`, the RP-LC retention time worked out at 729 s.
In the case of `COc1ccc(CNC(=O)c2cc3sccc3n2C)cc1`, the RP-LC retention time was determined as 894 s.
With `CCC1CCCCN1C(=O)c1cnc2nc(C)ccc2c1Nc1ccc(C)cc1C` (stereo unspecified), the RP-LC retention time stood at 706 s.
In turn, `Cc1ccc(CCC(=O)Nc2nc(-c3ccc4c(c3)NC(=O)C(C)O4)c(C)s2)cc1` (stereo unspecified) yielded an RP-LC retention time of 1010 s.
As for `O=C(CCc1c[nH]c2ccccc12)N1CCOc2ccc(N3CCOCC3)cc2C1`, the RP-LC retention time came to 770 s.
For `CC(C)OCCCNC(=O)Cn1c(=O)c2cccn2c2ccc(F)cc21`, the RP-LC retention time amounted to 754 s.
As to `CCCCN1C(=O)C(C)(C(=O)Nc2ccccc2)Oc2cccnc21` (stereo unspecified), the RP-LC retention time was 999 s.
For the molecule `Cn1cc(S(=O)(=O)N2CCC(C(=O)NC3CC3)CC2)cc1C(=O)N1CCCC1`, the RP-LC retention time was determined as 641 s.
`Cc1ccc(CNC(=O)C2CCCN(c3nc4ccccc4n(Cc4ccccc4)c3=O)C2)o1` (stereo unspecified) came in with an RP-LC retention time of 1150 s.
`CCc1ccc(C(=O)N2CCN(c3nnc4ccccn34)CC2)cc1`: the RP-LC retention time was 681 s.
For the molecule `Cc1ccc2oc(C(=O)NCc3c(F)cccc3F)cc2n1`, the RP-LC retention time is 652 s.
Regarding `CCc1ccc(C2=C(C)C(N3CCCN(C(=O)C4CCCC4)CC3)=NS2(=O)=O)cc1`, the RP-LC retention time was 946 s.
For the molecule `O=C(Nc1nc(CC(=O)N2CCn3c2nc2ccccc23)cs1)c1ccsc1`, the RP-LC retention time was determined as 657 s.
Turning to `CN1C(=O)CCc2cc(NC(=O)c3ccsc3)ccc21`, the RP-LC retention time stood at 691 s.
`CC1(C(=O)NC2CCCCC2)CN(S(C)(=O)=O)CC(=O)N1c1ccc(Cl)cc1` (stereo unspecified) showed an RP-LC retention time of 860 s.
The molecule `Cc1ccccc1-c1nc(C2CC(=O)N(c3ccc(Cl)cc3)C2)no1` (stereo unspecified) displayed an RP-LC retention time of 1090 s.
As to `O=C(Nc1cnc(-c2ccc(Cl)cc2)nc1)c1cncc(Br)c1`, the RP-LC retention time is 1070 s.
Consider `COc1ccc(Nc2c(-c3ccc(OC)c(OC)c3)nc3cnccn23)cc1`, for which the RP-LC retention time is 730 s.
The molecule `O=C(c1ccco1)N1CCc2cc(-c3ccno3)ccc21` had an RP-LC retention time of 815 s.
Next, `COc1ccc(-c2nc(-c3ccc4c(c3)nc(C)c(=O)n4C)no2)cc1OC`: 876 s.
The molecule `CN(C)c1ccc(CNC(=O)c2nnc(-c3ccc(S(=O)(=O)N4CCOCC4)cc3)o2)cc1` yielded an RP-LC retention time of 648 s.
`O=c1c2ccc(O)cc2oc2cc(O)ccc12`: the RP-LC retention time amounted to 612 s.
As for `O=c1c2cc(-c3ccc(F)cc3)nn2cnn1Cc1nc(-c2cccc(C(F)(F)F)c2)no1`, the RP-LC retention time was found to be 1200 s.
Molecule `Cc1noc(-c2ccnc(-n3cnc(C(=O)NCc4ccccc4F)c3)c2)n1` had an RP-LC retention time of 833 s.
Next, `COc1cccc(-c2noc3ncnc(N4CCN(c5ccccn5)CC4)c23)c1`: 660 s.
`Cc1ccccc1CNC(=O)CN1CCN(Cc2ccccc2)C1=O`: the RP-LC retention time came out at 806 s.
Consider `Cc1oc2c(c1C(=O)N1CCN(c3cccc(C(F)(F)F)c3)CC1)C1=NCCN1C=N2`, for which the RP-LC retention time came to 692 s.
Consider `CCn1c(C(=O)NC(C)CCc2ccco2)cc2sc(Cl)cc21` (stereo unspecified), for which the RP-LC retention time was found to be 738 s.
Turning to `COCCC1CCN(C(=O)CCc2c(C)nn(C)c2C)CC1`, the RP-LC retention time is 616 s.
`COc1ncc(C(=O)NCCc2ccc(S(N)(=O)=O)cc2)cn1` returned an RP-LC retention time of 608 s.
`O=S(=O)(Nc1ccc(F)cc1)c1cccnc1Nc1ccc(Cl)cc1` returned an RP-LC retention time of 1120 s.
Next, `CCC1CCCCN1CCCNC(=O)Cn1ccc2cc(S(=O)(=O)N3CCCCCC3)ccc21` (stereo unspecified): 704 s; `CCc1nc(-c2ccc(-c3noc(CNC(=O)Cc4ccc(Cl)cc4)n3)cc2)cs1`: 1080 s.
Regarding `N#Cc1cccc(-c2cn3c(n2)N(C(=O)CC2CCCC2)CCC3)c1`, the RP-LC retention time is 848 s.
For `CCOc1ccc(CNC2CCN(c3ccc(C(=O)NC4CC4)cn3)C2)cc1` (stereo unspecified), the RP-LC retention time stood at 578 s.
For `CCOC(=O)c1cccc(N2C=C(C(=O)OC)S(=O)(=O)c3ccccc32)c1`, the RP-LC retention time came out at 858 s.
As to `CNC(=O)c1cc2c(C)nn(-c3cccc(F)c3)c2s1`, the RP-LC retention time worked out at 865 s.
In turn, `Cc1cc(-c2nnc(-c3ccccc3)o2)c(C)n1CC(=O)NCc1cccc(Cl)c1` had an RP-LC retention time of 973 s.
In turn, `Cc1ccc2c(c1)N(Cc1nc(-c3ccc(C)c(C)c3)no1)C(=O)CO2` came in with an RP-LC retention time of 1160 s.
Molecule `COc1ccc(NC(=O)Cn2nc(N3CCOCC3)c3ccccc3c2=O)cc1Cl` returned an RP-LC retention time of 794 s.
Take `CCCS(=O)(=O)N1CCCN(S(=O)(=O)c2ccccc2)CCC(=O)NCC1`: the RP-LC retention time is 707 s.
In the case of `Cc1noc(/C=C\c2ccc(S(=O)(=O)N3CCCC3)cc2)c1NC(=O)C1CC1`, the RP-LC retention time is 837 s.
The value for `O=C(C1CC(=O)N(c2n[nH]c3ccccc23)C1)N1CCC(c2nc3ccccc3[nH]2)CC1` (stereo unspecified) was 591 s.
With `COCCc1noc(C2CN(C(=O)c3ccsc3)C2)n1`, the RP-LC retention time is 654 s.
`O=C(COc1ccc(F)c(F)c1)N1CCC(Nc2cccnc2)C1` (stereo unspecified) had an RP-LC retention time of 604 s.
Next, `Cc1ccc(NC(=O)c2csc(-c3ccc(N4CCCC4)nc3)n2)c(C)c1`: 813 s.
Regarding `Cc1nc(-c2cccs2)c(CCC(=O)NC2CCCC2)s1`, the RP-LC retention time came to 773 s.
Next, `CCOCCCNC(=O)C1c2cc(OC)c(OC)cc2C(=O)N2CCc3ccccc3C12` (stereo unspecified): 718 s; `CC(C)CCNC(=O)Cn1ccn2nc(-c3ccc(F)cc3)c(CO)c2c1=O`: 804 s.
Consider `CCn1cc(-c2nc(C(=O)Nc3ccc(OC)cc3)cs2)c2cccnc21`, for which the RP-LC retention time was 1000 s.
Turning to `CCn1nc(CNC(=O)CSc2ccncc2)c2ccccc21`, the RP-LC retention time came to 598 s.
As to `O=C(NCc1ccccc1Cl)C1CCCN(C(=O)NC2CC2)C1` (stereo unspecified), the RP-LC retention time was 652 s.
Regarding `Cc1nn2c(CNC(=O)c3cccs3)c(-c3ccccc3)nc2s1`, the RP-LC retention time was determined as 797 s.
Take `Cc1cccc(NC(=O)Cn2ncc3c(N4CCN(c5ccccn5)CC4)ncnc32)c1C`: the RP-LC retention time is 609 s.
Regarding `CCc1sc(NC(=O)c2cccc(NC(=O)C(CC)CC)c2)nc1-c1ccccc1`, the RP-LC retention time amounted to 1170 s.
The value for `Cc1cccc(C(=O)N2N=C(c3ccco3)CC2c2cccs2)c1` (stereo unspecified) was 940 s.
